# According to patent publication US11439148B2, “Pyrimidine derivatives” (SYNGENTA PARTICIPATIONS AG, priority 2017, dated 2022):
# Several values for one entry are separate records, joined by “and”; a condition that tells them apart may be missing. Equal entries are not always repeated.
# Tested on: Septoria tritici
# Experiment: Adjuvant efficacy with isopyrazam on inoculated wheat plants
# Format: in vivo
# Conditions: isopyrazam SC, mean over 6.5, 16, 40 and 100 mg/l and 4 replicates, sprayed 4 days after inoculation, percentage of leaf area infected 17-18 days after infection, Tests 1-3 separate runs
# Protocol: Adjuvants 6, 7, 8 and 10 were tested as adjuvants for agrochemical compositions comprising isopyrazam.
# Two week old wheat plants were inoculated with the fungus Septoria tritici. […] All spray solutions also contained 10% v/v of iso-Propanol. The leaves of the plants were assessed visually 17-18 days after infection and the damage was expressed as the percentage of the leaf area infected. Each spray test was replicated four times across the four application rates.
# The results shown in Table 6 below are mean averages over the four rates of isopyrazam and the four replicates.
row,Compound,Disease Damage Mean
1,CCCCCCCCCCCCOc1cc(OCCOCCOCCOCCOCCOCCOCCOC)ncn1 [Adjuvant 6],7% and 9% and 12%
2,CCCCCCCCCCCCOc1cc(OCCOCCOCCOCCOCCOCCOCCOCCOCCOCCOC)ncn1 [Adjuvant 7],12%
3,CCCCCCCCCCCCCCCCOc1cc(OCCOCCOCCOCCOCCOCCOCCOCCOCCOCCOC)ncn1 [Adjuvant 8],20%
4,CCCCCCCCC=CCCCCCCCCOc1cc(OCCOCCOCCOCCOCCOCCOCCOCCOCCOCCOC)ncn1 [Adjuvant 10],17% and 14%

# Tested on: Septoria tritici
# Experiment: Adjuvant efficacy with epoxiconazole on inoculated wheat plants
# Format: in vivo
# Conditions: epoxiconazole SC 1.5, 4, 8.5 and 20 mg/l, 4 replicates, adjuvant 0.1% v/v (none in No Adjuvant rows), sprayed 4 days after inoculation, percentage of leaf area infected 17-18 days after infection, Tests 1-3 separate runs
# Protocol: Adjuvants 6, 7, 8 and 10 were tested as adjuvants for agrochemical compositions comprising epoxiconazole.
# Two week old wheat plants were inoculated with the fungus Septoria tritici. […] All spray solutions also contained 10% v/v of iso-Propanol. The leaves of the plants were assessed visually 17-18 days after infection and the damage was expressed as the percentage of the leaf area infected.
row,Compound,Disease Damage Mean
1,CCCCCCCCCCCCOc1cc(OCCOCCOCCOCCOCCOCCOCCOC)ncn1 [Adjuvant 6],42% and 10% and 21%
2,CCCCCCCCCCCCOc1cc(OCCOCCOCCOCCOCCOCCOCCOCCOCCOCCOC)ncn1 [Adjuvant 7],12%
3,CCCCCCCCCCCCCCCCOc1cc(OCCOCCOCCOCCOCCOCCOCCOCCOCCOCCOC)ncn1 [Adjuvant 8],36%
4,CCCCCCCCC=CCCCCCCCCOc1cc(OCCOCCOCCOCCOCCOCCOCCOCCOCCOCCOC)ncn1 [Adjuvant 10],26%

# Tested on: Polygonum convolvulus (POLCO)
# Experiment: Adjuvant efficacy with mesotrione, glasshouse spray test
# Format: in vivo
# Conditions: mesotrione SC, mean over 30 and 60 g/ha and 3 replicates; adjuvant 0.2% v/v (none in No Adjuvant rows); % leaf area killed, 21 days after application; Tests 1-4 separate runs
# Protocol: (§1) The efficacy of adjuvants 1-12 as an adjuvant for the herbicide mesotrione was tested in a glasshouse against four weed species sown into standard soil in pots and cultivated under controlled conditions in a glasshouse (at 24/18° C. day/night; 16 hours light; 65% humidity). Mesotrione was added to the spray tank as a standard SC (suspension concentrate) formulation.
# (§2) The spray tests were also carried out using mesotrione in conjunction with adjuvants 1-12. The adjuvants were added to the spray solution at a rate of 0.2% v/v unless otherwise stated. All spray solutions also contained 10% w/w of iso-Propanol. The weed species and their BBCH growth stage at spraying were Brachiaria platyphylla (BRAPP; growth stage 13-14) or Brachiaria plantaginea (BRAPL; growth stage 13-14), Commelina benghalensis (COMBE; growth stage 13), Digitaria sanguinalis (DIGSA; growth stage 14), and Polygonum convolvulus (POLCO; growth stage 13-14). Each spray test was replicated three times.
# (§3) The test plants were then grown in a glasshouse under controlled conditions (at 24/18° C. day/night; 16 hours light; 65% humidity) and watered twice a day. The efficacy of the herbicide was assessed visually and expressed as a percentage of the leaf area killed. Samples were assessed at a time period of 21 days following application. The results shown in Table 3 below are mean averages over the two rates of mesotrione and the three replicates.
row,Compound,Mean % Herbicidal Activity POLCO
1,CCCCCCOc1cc(OCCOCCOC)ncn1 [Adjuvant 1],81%
2,CCCCCCOc1cc(OCCOCCOCCOCCOCCOCCOCCOCCOCCOCCOC)ncn1 [Adjuvant 2],94%
3,CCCCCCCCCCCCOc1cc(OCCOCCOCCOCCOCCOCCOCCOC)ncn1 [Adjuvant 6],84%
4,CCCCCCCCCCCCOc1cc(OCCOCCOCCOCCOCCOCCOCCOCCOCCOCCOC)ncn1 [Adjuvant 7],70%
5,CCCCCCCCCCCCCCCCOc1cc(OCCOCCOCCOCCOCCOCCOCCOCCOCCOCCOC)ncn1 [Adjuvant 8],82% and 92% and 93%
6,CCCCCCCCC=CCCCCCCCCOc1cc(OCCOCCOCCOCCOCCOCCOCCOCCOCCOCCOC)ncn1 [Adjuvant 10],95%

# Tested on: Brachiaria plantaginea (BRAPL)
# Experiment: as above
# Format: in vivo
# Conditions: mesotrione SC, mean over 30 and 60 g/ha and 3 replicates; adjuvant 0.2% v/v (none in No Adjuvant rows); % leaf area killed, 21 days after application; Test 4
# Protocol: as §1, §2, §3
row,Compound,Mean % Herbicidal Activity BRAPL [%]
1,CCCCCCCCCCCCCCCCOc1cc(OCCOCCOCCOCCOCCOCCOCCOCCOCCOCCOC)ncn1 [Adjuvant 8],33

# Tested on: Commelina benghalensis (COMBE)
# Experiment: as above
# Format: in vivo
# Conditions: mesotrione SC, mean over 30 and 60 g/ha and 3 replicates; adjuvant 0.2% v/v (none in No Adjuvant rows); % leaf area killed, 21 days after application; Tests 2 and 4
# Protocol: as §1, §2, §3
row,Compound,Mean % Herbicidal Activity COMBE
1,CCCCCCCCCCCCOc1cc(OCCOCCOCCOCCOCCOCCOCCOC)ncn1 [Adjuvant 6],83%
2,CCCCCCCCCCCCCCCCOc1cc(OCCOCCOCCOCCOCCOCCOCCOCCOCCOCCOC)ncn1 [Adjuvant 8],85% and 79%

# Tested on: Brachiaria platyphylla (BRAPP)
# Experiment: as above
# Format: in vivo
# Conditions: mesotrione SC, mean over 30 and 60 g/ha and 3 replicates; adjuvant 0.2% v/v (none in No Adjuvant rows); % leaf area killed, 21 days after application; Tests 1-3 separate runs
# Protocol: as §1, §2, §3
row,Compound,Mean % Herbicidal Activity BRAPP [%]
1,CCCCCCOc1cc(OCCOCCOC)ncn1 [Adjuvant 1],53
2,CCCCCCOc1cc(OCCOCCOCCOCCOCCOCCOCCOCCOCCOCCOC)ncn1 [Adjuvant 2],52
3,CCCCCCCCCCCCOc1cc(OCCOCCOCCOCCOCCOCCOCCOC)ncn1 [Adjuvant 6],53
4,CCCCCCCCCCCCOc1cc(OCCOCCOCCOCCOCCOCCOCCOCCOCCOCCOC)ncn1 [Adjuvant 7],68
5,CCCCCCCCC=CCCCCCCCCOc1cc(OCCOCCOCCOCCOCCOCCOCCOCCOCCOCCOC)ncn1 [Adjuvant 10],61

# Tested on: Digitaria sanguinalis (DIGSA)
# Experiment: as above
# Format: in vivo
# Conditions: mesotrione SC, mean over 30 and 60 g/ha and 3 replicates; adjuvant 0.2% v/v (none in No Adjuvant rows); % leaf area killed, 21 days after application; Tests 1-4 separate runs
# Protocol: as §1, §2, §3
row,Compound,Mean % Herbicidal Activity DIGSA
1,CCCCCCOc1cc(OCCOCCOC)ncn1 [Adjuvant 1],81%
2,CCCCCCOc1cc(OCCOCCOCCOCCOCCOCCOCCOCCOCCOCCOC)ncn1 [Adjuvant 2],79%
3,CCCCCCCCCCCCOc1cc(OCCOCCOCCOCCOCCOCCOCCOC)ncn1 [Adjuvant 6],83%
4,CCCCCCCCCCCCOc1cc(OCCOCCOCCOCCOCCOCCOCCOCCOCCOCCOC)ncn1 [Adjuvant 7],80%
5,CCCCCCCCCCCCCCCCOc1cc(OCCOCCOCCOCCOCCOCCOCCOCCOCCOCCOC)ncn1 [Adjuvant 8],84% and 81% and 83%
6,CCCCCCCCC=CCCCCCCCCOc1cc(OCCOCCOCCOCCOCCOCCOCCOCCOCCOCCOC)ncn1 [Adjuvant 10],84%

# Tested on: weed species BRAPP, COMBE, DIGSA, POLCO
# Experiment: Adjuvant efficacy with mesotrione, glasshouse spray test, average over all species (BRAPP set)
# Format: in vivo
# Conditions: mesotrione SC, mean over 30 and 60 g/ha; adjuvant 0.2% v/v (none in No Adjuvant rows); 21 days; Tests 1-3, species set with BRAPP (COMBE only in Test 2)
# Protocol: as §1, §2, §3
row,Compound,Mean % Herbicidal Activity Average over all Species [%]
1,CCCCCCOc1cc(OCCOCCOC)ncn1 [Adjuvant 1],72
2,CCCCCCOc1cc(OCCOCCOCCOCCOCCOCCOCCOCCOCCOCCOC)ncn1 [Adjuvant 2],75
3,CCCCCCCCCCCCOc1cc(OCCOCCOCCOCCOCCOCCOCCOC)ncn1 [Adjuvant 6],76
4,CCCCCCCCCCCCOc1cc(OCCOCCOCCOCCOCCOCCOCCOCCOCCOCCOC)ncn1 [Adjuvant 7],73
5,CCCCCCCCC=CCCCCCCCCOc1cc(OCCOCCOCCOCCOCCOCCOCCOCCOCCOCCOC)ncn1 [Adjuvant 10],80

# Tested on: four weed species (ALOMY, AVEFA, LOLPE, SETVI)
# Experiment: Adjuvant efficacy with pinoxaden, glasshouse spray test, average over all species
# Format: in vivo
# Conditions: pinoxaden EC, mean over 7.5 and 15 g/ha, adjuvant 0.2% v/v (none in No Adjuvant rows), 21 days, average of ALOMY
# Protocol: as §1, with “adjuvants” for “an adjuvant”, “pinoxaden were” for “mesotrione was”, “species,” for “species”, “20/16°” for “24/18°”, “Pinoxaden” for “Mesotrione”, “EC (emulsifiable” for “SC (suspension”
# The spray tests were also carried out using pinoxaden in conjunction with adjuvants 1-12. The adjuvants were added to the spray solution at a rate of 0.2% v/v unless otherwise stated. All spray solutions also contained 10% w/w of iso-Propanol. The weed species and their BBCH growth stage at spraying were Avena fatua (AVEFA; growth stage 12), Lolium perenne (LOLPE; growth stage 13), Alopecurus myosuroides (ALOMY; growth stage 13), and Setaria viridis (SETVI; growth stage 13-14). Each spray test was replicated three times. The test plants were then grown in a glasshouse under controlled conditions (at 20/16° C. day/night; 16 hours light; 65% humidity) and watered twice a day. The efficacy of the herbicide was assessed visually and expressed as a percentage of the leaf area killed. Samples were assessed at a time period of 21 days following application. The results shown in Table 4 below are mean averages over the two rates of pinoxaden, and the three replicates.
row,Compound,Mean % Herbicidal Activity Average over all Species
1,CCCCCCOc1cc(OCCOCCOC)ncn1 [Adjuvant 1],55%
2,CCCCCCOc1cc(OCCOCCOCCOCCOCCOCCOCCOCCOCCOCCOC)ncn1 [Adjuvant 2],47%
3,CCCCCCCCCCCCOc1cc(OCCOCCOCCOCCOCCOCCOCCOC)ncn1 [Adjuvant 6],63%
4,CCCCCCCCCCCCOc1cc(OCCOCCOCCOCCOCCOCCOCCOCCOCCOCCOC)ncn1 [Adjuvant 7],84%
5,CCCCCCCCCCCCCCCCOc1cc(OCCOCCOCCOCCOCCOCCOCCOCCOCCOCCOC)ncn1 [Adjuvant 8],69% and 56% and 67%
6,CCCCCCCCC=CCCCCCCCCOc1cc(OCCOCCOCCOCCOCCOCCOCCOCCOCCOCCOC)ncn1 [Adjuvant 10],50%

# Tested on: weed species BRAPL, COMBE, DIGSA, POLCO
# Experiment: Adjuvant efficacy with mesotrione, glasshouse spray test, average over all species (BRAPL set)
# Format: in vivo
# Conditions: mesotrione SC, mean over 30 and 60 g/ha, adjuvant 0.2% v/v (none in No Adjuvant rows), 21 days, Test 4, average of BRAPL
# Protocol: as §1, §2
# as §3, with “The results shown in Table 3 below are mean averages over the two rates of mesotrione and the three replicates.” left out
row,Compound,Mean % Herbicidal Activity Average over all Species [%]
1,CCCCCCCCCCCCCCCCOc1cc(OCCOCCOCCOCCOCCOCCOCCOCCOCCOCCOC)ncn1 [Adjuvant 8],72
